This note sets out measurements from ChEMBL document CHEMBL6078668, “Synthesis and biological evaluation of lappaconitine analogues as potential anti-neuroinflammatory agents by side chain modification and scaffold hopping strategy” (Bioorg Med Chem, 2025).

Data set [1] in a line: Cytotoxicity against C57BL/6 mouse BV-2 cells assessed as survival rate at 30 uM incubated for 24 hrs by MTT assay relative to control. It counts as toxicity, cell-based. The conditions noted are these: read-out: Survival.
Data set [2] deals with BV-2. Kind of data set: Anti-neuroinflammatory activity against LPS-stimulated C57BL/6 mouse BV-2 cells assessed as inhibition of NO release at 30 uM preincubated with compound for 4 hrs followed by LPS addition and measured after 24 hrs by Griess reagent based assay relative to control. The class given is functional. The conditions noted are these: C57BL/6, BV-2, time 28 hrs.

Data set [3] relates to BV-2. Kind of data set: Anti-neuroinflammatory activity against LPS-stimulated C57BL/6 mouse BV-2 cells assessed as inhibition of NO release preincubated with compound for 4 hrs followed by LPS addition and measured after 24 hrs by Griess reagent based assay. The class given is functional, cell-based. To be noted: C57BL/6, BV-2. In general terms: Griess reagent forms a coloured azo dye with nitrite.

`CCN1C[C@]2(OC(=O)c3ccccc3NC(=O)S(=O)(=O)c3ccc(Cl)s3)CC[C@H](OC)[C@]34C1[C@@H](C[C@H]23)[C@@]1(O)C[C@H](OC)[C@H]2C[C@@H]4[C@]1(O)[C@H]2OC`: the viability at 24 h, 30 µM in data set [1] came to 100%. For the same compound, in data set [2], the inhibition (usually the share of the control response that was lost under treatment) at 30 µM stood at 69%. The IC50 – broadly, the concentration at which inhibition is half-maximal – in data set [3] is 17.9 µM.

As to `CCN1C[C@]2(OC(=O)c3ccccc3NC(=O)c3ccc(Br)s3)CC[C@H](OC)[C@]34C1[C@@H](C[C@H]23)[C@@]1(O)C[C@H](OC)[C@H]2C[C@@H]4[C@]1(O)[C@H]2OC`, the viability at 24 h, 30 µM in data set [1] came out at 103%. Moreover, the inhibition at 30 µM in data set [2] came to 72.9%. The IC50 in data set [3] worked out at 16.5 µM.

On to `CCN1C[C@]2(OC(=O)c3ccccc3NC(=O)CC(C)(C)C)CC[C@H](OC)[C@]34C1[C@@H](C[C@H]23)[C@@]1(O)C[C@H](OC)[C@H]2C[C@@H]4[C@]1(O)[C@H]2OC`, for which, in data set [1], the viability at 24 h, 30 µM was determined as 106%. For the same compound, the inhibition at 30 µM in data set [2] was found to be 74.8%. Besides, in data set [3], the IC50 is 16.1 µM.

Consider `CCCOc1ccc(C(=O)Nc2ccccc2C(=O)O[C@@]23CC[C@H](OC)[C@]45C([C@@H](C[C@H]24)[C@@]2(O)C[C@H](OC)[C@H]4C[C@@H]5[C@]2(O)[C@H]4OC)N(CC)C3)cc1`, for which the viability at 24 h, 30 µM in data set [1] was 105%. Further, the inhibition at 30 µM in data set [2] was 74.8%. Further, the IC50 in data set [3] was found to be 15.5 µM.

Turning to `CCN1C[C@]2(OC(=O)c3ccccc3NC(=O)S(=O)(=O)c3ccc(Br)s3)CC[C@H](OC)[C@]34C1[C@@H](C[C@H]23)[C@@]1(O)C[C@H](OC)[C@H]2C[C@@H]4[C@]1(O)[C@H]2OC`, the viability at 24 h, 30 µM in data set [1] is 103%. Also, in data set [2], the inhibition at 30 µM amounted to 81.9%. Besides, the IC50 in data set [3] came to 11.4 µM.

Turning to `CCN1C[C@]2(OC(=O)c3ccccc3NC(=O)S(=O)(=O)c3cccnc3)CC[C@H](OC)[C@]34C1[C@@H](C[C@H]23)[C@@]1(O)C[C@H](OC)[C@H]2C[C@@H]4[C@]1(O)[C@H]2OC`, the viability at 24 h, 30 µM in data set [1] was 99.3%. Further, the inhibition at 30 µM in data set [2] was found to be 63.2%. Also, the half-maximal inhibitory concentration (IC50) in data set [3] worked out at 22.2 µM.

With `CCN1C[C@]2(OC(=O)c3ccccc3NC(=O)c3ccccc3Br)CC[C@H](OC)[C@]34C1[C@@H](C[C@H]23)[C@@]1(O)C[C@H](OC)[C@H]2C[C@@H]4[C@]1(O)[C@H]2OC`, the viability at 24 h, 30 µM in data set [1] amounted to 106%. The inhibition at 30 µM in data set [2] was determined as 32.5%.

For `CCN1C[C@]2(OC(=O)c3ccccc3NC(=O)S(=O)(=O)c3ccc(F)cc3)CC[C@H](OC)[C@]34C1[C@@H](C[C@H]23)[C@@]1(O)C[C@H](OC)[C@H]2C[C@@H]4[C@]1(O)[C@H]2OC`, the viability at 24 h, 30 µM in data set [1] is 109%. Besides, the inhibition at 30 µM in data set [2] is 40.6%.

On to `CCN1C[C@]2(OC(=O)c3ccccc3NC(=O)S(=O)(=O)c3cccc(OC)c3)CC[C@H](OC)[C@]34C1[C@@H](C[C@H]23)[C@@]1(O)C[C@H](OC)[C@H]2C[C@@H]4[C@]1(O)[C@H]2OC`, for which the viability at 24 h, 30 µM in data set [1] stood at 102%. The inhibition at 30 µM in data set [2] is 23.5%.

In the case of `CCN1C[C@]2(OC(=O)c3ccccc3NC(=O)c3cccc(OC)c3)CC[C@H](OC)[C@]34C1[C@@H](C[C@H]23)[C@@]1(O)C[C@H](OC)[C@H]2C[C@@H]4[C@]1(O)[C@H]2OC`, the viability at 24 h, 30 µM in data set [1] turned out to be 107%. Besides, the inhibition at 30 µM in data set [2] was 44.9%.

In the case of `CCN1C[C@]2(OC(=O)c3ccccc3NC(=O)CC(C)C)CC[C@H](OC)[C@]34C1[C@@H](C[C@H]23)[C@@]1(O)C[C@H](OC)[C@H]2C[C@@H]4[C@]1(O)[C@H]2OC`, the viability at 24 h, 30 µM in data set [1] stood at 102%. Besides, in data set [2], the inhibition at 30 µM was 16.7%.

As for `CCN1C[C@]2(OC(=O)c3ccccc3NC(C)=O)CC[C@H](OC)[C@]34C1[C@@H](C[C@H]23)[C@@]1(O)C[C@H](OC)[C@H]2C[C@@H]4[C@]1(O)[C@H]2OC`, the viability at 24 h, 30 µM in data set [1] is 98.2%. In data set [2], the inhibition at 30 µM came out at 25.1%.

With `CCCCOC(=O)c1ccccc1NC(=O)c1ccc(CC)cc1`, the viability at 24 h, 30 µM in data set [1] turned out to be 103%. Moreover, in data set [2], the inhibition at 30 µM was 30.4%.

In the case of `CCN1C[C@]2(OC(=O)c3ccccc3NC(=O)S(=O)(=O)c3cccc4cccnc34)CC[C@H](OC)[C@]34C1[C@@H](C[C@H]23)[C@@]1(O)C[C@H](OC)[C@H]2C[C@@H]4[C@]1(O)[C@H]2OC`, the viability at 24 h, 30 µM in data set [1] is 103%. The inhibition at 30 µM in data set [2] worked out at 46.2%.

In the case of `COC(=O)c1ccccc1NS(=O)(=O)c1ccc(Br)s1`, the viability at 24 h, 30 µM in data set [1] turned out to be 99.1%. In data set [2], the inhibition at 30 µM was 43.8%.

Turning to `CCN1C[C@]2(OC(=O)c3ccccc3NC(=O)c3ccc(Br)cc3)CC[C@H](OC)[C@]34C1[C@@H](C[C@H]23)[C@@]1(O)C[C@H](OC)[C@H]2C[C@@H]4[C@]1(O)[C@H]2OC`, the viability at 24 h, 30 µM in data set [1] was 102%. Also, the inhibition at 30 µM in data set [2] was found to be 21.3%.

Turning to `CCN1C[C@]2(OC(=O)c3ccccc3NC(=O)S(=O)(=O)c3ccc(C(=O)OC)cc3)CC[C@H](OC)[C@]34C1[C@@H](C[C@H]23)[C@@]1(O)C[C@H](OC)[C@H]2C[C@@H]4[C@]1(O)[C@H]2OC`, in data set [1], the viability at 24 h, 30 µM was found to be 104%. Also, in data set [2], the inhibition at 30 µM amounted to 15.7%.

On to `CCN1C[C@]2(OC(=O)c3ccccc3NC(=O)S(=O)(=O)c3ccc(Cl)nc3)CC[C@H](OC)[C@]34C1[C@@H](C[C@H]23)[C@@]1(O)C[C@H](OC)[C@H]2C[C@@H]4[C@]1(O)[C@H]2OC`, for which the viability at 24 h, 30 µM in data set [1] turned out to be 104%. The inhibition at 30 µM in data set [2] worked out at 33.5%.

Consider `CCN1C[C@]2(OC(=O)c3ccccc3NC(=O)S(=O)(=O)c3ccccc3[N+](=O)[O-])CC[C@H](OC)[C@]34C1[C@@H](C[C@H]23)[C@@]1(O)C[C@H](OC)[C@H]2C[C@@H]4[C@]1(O)[C@H]2OC`, for which, in data set [1], the viability at 24 h, 30 µM was 104%. Besides, in data set [2], the inhibition at 30 µM was determined as 20.5%.

With `COC(=O)c1ccccc1NS(=O)(=O)c1cccc(F)c1`, in data set [1], the viability at 24 h, 30 µM is 106%. Besides, in data set [2], the inhibition at 30 µM came out at 38.5%.

As for `CCN1C[C@]2(OC(=O)c3ccccc3NC(=O)S(=O)(=O)CCCCl)CC[C@H](OC)[C@]34C1[C@@H](C[C@H]23)[C@@]1(O)C[C@H](OC)[C@H]2C[C@@H]4[C@]1(O)[C@H]2OC`, in data set [1], the viability at 24 h, 30 µM amounted to 104%. For the same compound, in data set [2], the inhibition at 30 µM amounted to 23.5%.

Take `CCN1C[C@]2(OC(=O)c3ccccc3NC(=O)C3CCCC3)CC[C@H](OC)[C@]34C1[C@@H](C[C@H]23)[C@@]1(O)C[C@H](OC)[C@H]2C[C@@H]4[C@]1(O)[C@H]2OC`: the viability at 24 h, 30 µM in data set [1] was determined as 107%. Besides, in data set [2], the inhibition at 30 µM was 37.9%.

For `CCN1C[C@]2(OC(=O)c3ccccc3NC(=O)c3cccc(C#N)c3)CC[C@H](OC)[C@]34C1[C@@H](C[C@H]23)[C@@]1(O)C[C@H](OC)[C@H]2C[C@@H]4[C@]1(O)[C@H]2OC`, the viability at 24 h, 30 µM in data set [1] was 101%. Further, the inhibition at 30 µM in data set [2] stood at 12.8%.

As to `CCN1C[C@]2(OC(=O)c3ccccc3NC(=O)C3CCCCC3)CC[C@H](OC)[C@]34C1[C@@H](C[C@H]23)[C@@]1(O)C[C@H](OC)[C@H]2C[C@@H]4[C@]1(O)[C@H]2OC`, the viability at 24 h, 30 µM in data set [1] is 105%. For the same compound, the inhibition at 30 µM in data set [2] turned out to be 44.5%.

Regarding `CCN1C[C@]2(OC(=O)c3ccccc3NC(=O)S(=O)(=O)c3ccc4ccccc4c3)CC[C@H](OC)[C@]34C1[C@@H](C[C@H]23)[C@@]1(O)C[C@H](OC)[C@H]2C[C@@H]4[C@]1(O)[C@H]2OC`, the viability at 24 h, 30 µM in data set [1] is 100%. Moreover, the inhibition at 30 µM in data set [2] is 53.1%.

For `CCN1C[C@]2(OC(=O)c3ccccc3NC(=O)S(=O)(=O)c3cccnc3Cl)CC[C@H](OC)[C@]34C1[C@@H](C[C@H]23)[C@@]1(O)C[C@H](OC)[C@H]2C[C@@H]4[C@]1(O)[C@H]2OC`, the viability at 24 h, 30 µM in data set [1] amounted to 106%. Moreover, the inhibition at 30 µM in data set [2] is 56.5%.

In the case of `CCN1C[C@]2(OC(=O)c3ccccc3NC(=O)S(=O)(=O)/C=C/c3ccccc3)CC[C@H](OC)[C@]34C1[C@@H](C[C@H]23)[C@@]1(O)C[C@H](OC)[C@H]2C[C@@H]4[C@]1(O)[C@H]2OC`, the viability at 24 h, 30 µM in data set [1] came to 108%. The inhibition at 30 µM in data set [2] came to 29.4%.

On to `CCN1C[C@]2(OC(=O)c3ccccc3NC(=O)S(=O)(=O)c3cccc(C#N)c3)CC[C@H](OC)[C@]34C1[C@@H](C[C@H]23)[C@@]1(O)C[C@H](OC)[C@H]2C[C@@H]4[C@]1(O)[C@H]2OC`, for which the viability at 24 h, 30 µM in data set [1] came out at 108%. Also, the inhibition at 30 µM in data set [2] came out at 7.4%.

For the compound `CCN1C[C@]2(OC(=O)c3ccccc3NC(=O)S(=O)(=O)c3cccc(Cl)c3)CC[C@H](OC)[C@]34C1[C@@H](C[C@H]23)[C@@]1(O)C[C@H](OC)[C@H]2C[C@@H]4[C@]1(O)[C@H]2OC`, the viability at 24 h, 30 µM in data set [1] was found to be 95.4%. The inhibition at 30 µM in data set [2] came out at 13.9%.

Consider `CCc1ccc(C(=O)Nc2ccccc2C(=O)OC)cc1`, for which, in data set [1], the viability at 24 h, 30 µM stood at 103%. Also, the inhibition at 30 µM in data set [2] was 37.1%.

As to `CCN1C[C@]2(OC(=O)c3ccccc3NC(=O)S(=O)(=O)CC)CC[C@H](OC)[C@]34C1[C@@H](C[C@H]23)[C@@]1(O)C[C@H](OC)[C@H]2C[C@@H]4[C@]1(O)[C@H]2OC`, in data set [1], the viability at 24 h, 30 µM worked out at 106%. Further, in data set [2], the inhibition at 30 µM worked out at 12.5%.

As for `CCN1C[C@]2(OC(=O)c3ccccc3NC(=O)c3ccccc3OC)CC[C@H](OC)[C@]34C1[C@@H](C[C@H]23)[C@@]1(O)C[C@H](OC)[C@H]2C[C@@H]4[C@]1(O)[C@H]2OC`, the viability at 24 h, 30 µM in data set [1] is 97%. The inhibition at 30 µM in data set [2] was 34.2%.

On to `CCCCCCC(=O)Nc1ccccc1C(=O)O[C@@]12CC[C@H](OC)[C@]34C([C@@H](C[C@H]13)[C@@]1(O)C[C@H](OC)[C@H]3C[C@@H]4[C@]1(O)[C@H]3OC)N(CC)C2`, for which the viability at 24 h, 30 µM in data set [1] was 100%. Moreover, the inhibition at 30 µM in data set [2] was 30%.
